Laboratory results from PubChem BioAssay AID1963850 (Molecular Pharmacology Branch, DTP, NCI, 2024).
Where “and” joins values, the source holds several entries; their conditions need not be identical. Identical values can stand only once.

Test system: 192522-019-R-J2-PDC complex tumor spheroid viability
Experiment: Anticancer human tumor 192522-019-R-J2-PDC patient-derived colon adenocarcinoma cell line growth inhibition [POLQ]
Conditions: for viability, T/C: stronger effect = lower value
Method in brief: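 Growth inhibition in 3D: complex spheroids (tumor PDC, HUVEC, MSC) treated with POLQ inhibitor combinations; where Cmax unknown, highest tested concentration 10 microM, except SN-38 at 1 microM.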

[1] = curve of first compound, second compound 0.0316 µM
[2] = curve of first compound, second compound 0.1 µM
[3] = curve of first compound, second compound 0.316 µM
[4] = curve of first compound, second compound 1 µM
[5] = curve of first compound, second compound 3.16 µM
[6] = curve of first compound, second compound 10 µM
[7] = second compound 0.0316 µM, first compound 0.0316 µM
[8] = second compound 0.0316 µM, first compound 0.1 µM
[9] = second compound 0.0316 µM, first compound 0.316 µM
[10] = second compound 0.0316 µM, first compound 1 µM
[11] = second compound 0.0316 µM, first compound 3.16 µM
[12] = second compound 0.0316 µM, first compound 10 µM
[13] = second compound 0.1 µM, first compound 0.0316 µM
[14] = second compound 0.1 µM, first compound 0.1 µM
[15] = second compound 0.1 µM, first compound 0.316 µM
[16] = second compound 0.1 µM, first compound 1 µM
[17] = second compound 0.1 µM, first compound 3.16 µM
[18] = second compound 0.1 µM, first compound 10 µM
[19] = second compound 0.316 µM, first compound 0.0316 µM
[20] = second compound 0.316 µM, first compound 0.1 µM
[21] = second compound 0.316 µM, first compound 0.316 µM
[22] = second compound 0.316 µM, first compound 1 µM
[23] = second compound 0.316 µM, first compound 3.16 µM
[24] = second compound 0.316 µM, first compound 10 µM
[25] = second compound 1 µM, first compound 0.0316 µM
[26] = second compound 1 µM, first compound 0.1 µM
[27] = second compound 1 µM, first compound 0.316 µM
[28] = second compound 1 µM, first compound 1 µM
[29] = second compound 1 µM, first compound 3.16 µM
[30] = second compound 1 µM, first compound 10 µM
[31] = second compound 3.16 µM, first compound 0.0316 µM
[32] = second compound 3.16 µM, first compound 0.1 µM
[33] = second compound 3.16 µM, first compound 0.316 µM
[34] = second compound 3.16 µM, first compound 1 µM
[35] = second compound 3.16 µM, first compound 3.16 µM
[36] = second compound 3.16 µM, first compound 10 µM
[37] = second compound 10 µM, first compound 0.0316 µM
[38] = second compound 10 µM, first compound 0.1 µM
[39] = second compound 10 µM, first compound 0.316 µM
[40] = second compound 10 µM, first compound 1 µM
[41] = second compound 10 µM, first compound 3.16 µM
[42] = second compound 10 µM, first compound 10 µM
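Also: spheroids exposed to drugs for seven days before reading.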
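For viability, T/C in this document: 100% = DMSO vehicle control viability in luminescence.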

Compound `COc1ccc([C@@H](O)c2cc(-c3ncnc4cc(N5CCOCC5)ccc34)c(F)cc2Cl)nn1` + Cc1cccc(N(C)C(=O)C2C(O)CCN2c2nc(C)cc(C(F)(F)F)c2C#N)c1 has an IC50 [1] of over 10 µM, an IC50 [2] of over 10 µM and an IC50 [3] of over 10 µM. The IC50 [4] was over 10 µM, the IC50 [5] was over 10 µM and the IC50 [6] was over 10 µM. It also gave a viability, T/C [7] of 102%, a viability, T/C [8] of 86% and a viability, T/C [9] of 103%. The viability, T/C [10] was 83.1%, the viability, T/C [11] was 85.9% and the viability, T/C [12] was 51.8%. For the same compound, the viability, T/C [13] was 100%, the viability, T/C [14] was 87.5% and the viability, T/C [15] was 90.1%. The viability, T/C [16] was 90.8%, the viability, T/C [17] was 78.9% and the viability, T/C [18] was 61.8%. For the same compound, the viability, T/C [19] was 104%, the viability, T/C [20] was 95.7% and the viability, T/C [21] was 102%. For the same compound, the viability, T/C [22] was 91.3%, the viability, T/C [23] was 84.9% and the viability, T/C [24] was 65%. The viability, T/C [25] was 98.9%, the viability, T/C [26] was 94.7% and the viability, T/C [27] was 93.7%. The viability, T/C [28] was 97.4%, the viability, T/C [29] was 89.9% and the viability, T/C [30] was 62.4%. For the same compound, the viability, T/C [31] was 101%, the viability, T/C [32] was 100% and the viability, T/C [33] was 105%. It also gave a viability, T/C [34] of 94.8%, a viability, T/C [35] of 95.1% and a viability, T/C [36] of 64.6%. For the same compound, the viability, T/C [37] was 106%, the viability, T/C [38] was 96.1% and the viability, T/C [39] was 104%. It also gave a viability, T/C [40] of 99.6%, a viability, T/C [41] of 89% and a viability, T/C [42] of 52.6%.

`O=c1[nH]cc(F)c(=O)[nH]1` was tested, and the viability, T/C (compound 0.0316 µM) was 92.8% and 104% and 97.2%, the viability, T/C (compound 0.1 µM) was 88.4% and 98% and 84.1% and the viability, T/C (compound 0.316 µM) was 81.6% and 85.3% and 79.5%. For the same compound, the viability, T/C (compound 1 µM) was 79.2% and 93.5% and 73.6%, the viability, T/C (compound 3.16 µM) was 86.3% and 94.5% and 74.5% and the viability, T/C (compound 10 µM) was 76.5% and 86% and 63.1%. It also gave an IC50 (curve of compound) of over 10 µM.

For `CC(C)n1c(=O)n(C)c2cnc3cc(F)c(-c4ccc(OCCCN5CCCCC5)nc4)cc3c21` + Nc1ccc(C#CCN(C(=O)Cc2ncc(C(F)(F)F)cc2C(F)(F)F)c2ccc(F)cc2)nn1, the IC50 [1] was over 10 µM, the IC50 [2] was over 10 µM and the IC50 [3] was over 10 µM. The IC50 [4] was over 10 µM, the IC50 [5] was over 10 µM and the IC50 [6] was over 10 µM. The viability, T/C [7] was 104%, the viability, T/C [8] was 97.6% and the viability, T/C [9] was 110%. For the same compound, the viability, T/C [10] was 118%, the viability, T/C [11] was 124% and the viability, T/C [12] was 101%. The viability, T/C [13] was 100%, the viability, T/C [14] was 112% and the viability, T/C [15] was 119%. It also gave a viability, T/C [16] of 134%, a viability, T/C [17] of 122% and a viability, T/C [18] of 94%. The viability, T/C [19] was 113%, the viability, T/C [20] was 105% and the viability, T/C [21] was 110%. It also gave a viability, T/C [22] of 118%, a viability, T/C [23] of 123% and a viability, T/C [24] of 111%. The viability, T/C [25] was 104%, the viability, T/C [26] was 118% and the viability, T/C [27] was 122%. It also gave a viability, T/C [28] of 138%, a viability, T/C [29] of 137% and a viability, T/C [30] of 111%. It also gave a viability, T/C [31] of 116%, a viability, T/C [32] of 104% and a viability, T/C [33] of 116%. For the same compound, the viability, T/C [34] was 127%, the viability, T/C [35] was 120% and the viability, T/C [36] was 112%. For the same compound, the viability, T/C [37] was 105%, the viability, T/C [38] was 104% and the viability, T/C [39] was 117%. It also gave a viability, T/C [40] of 127%, a viability, T/C [41] of 127% and a viability, T/C [42] of 114%.
